From BindingDB's records for doi:10.1021/jm00162a015 (1987)
Square brackets hold non-standard residues; d marks the D form. Peptide text beside a SMILES is read from it. * marks the point of attachment. Sta = CC(C)C[C@H](N)[C@@H](O)CC(=O)O; Boc = CC(C)(C)OC(=O)*

These compounds were tested against Rhizopuspepsin (Rhizopus chinensis) (assay: Compound was tested for inhibition of Rhizopus chinensis pepsin.).

SMILES | Ki
COC(=O)[C@H](CC(C)C)NC(=O)[C@@H](NC(=O)[C@H](Cc1ccccc1)NC(=O)C[C@H](O)[C@H](CC(C)C)NC(=O)[C@H](C)NC(=O)[C@H](C)NC(=O)[C@H](Cc1ccccc1)NC(=O)OC(C)(C)C)C(C)C [2-{2-[2-(4-{2-[2-(2-tert-Butoxycarbonylamino-3-phenyl-propionylamino)-propionylamino]-propionylamino}-3-hydroxy-6-methyl-heptanoylamino)-3-phenyl-propionylamino]-3-methyl-butyrylamino}-4-methyl-pentanoic acid methyl ester] (Boc-FAA[Sta]FVL-OMe) | 51 nM
COC(=O)[C@H](CC(C)C)NC(=O)[C@@H](NC(=O)C[C@H](O)[C@H](CC(C)C)NC(=O)[C@H](C)NC(=O)[C@H](C)NC(=O)[C@H](Cc1ccccc1)NC(=O)OC(C)(C)C)C(C)C [2-[2-(4-{2-[2-(2-tert-Butoxycarbonylamino-3-phenyl-propionylamino)-propionylamino]-propionylamino}-3-hydroxy-6-methyl-heptanoylamino)-3-methyl-butyrylamino]-4-methyl-pentanoic acid methyl ester] (Boc-FAA[Sta]VL-OMe) | 78 nM
COC(=O)[C@H](CC(C)C)NC(=O)[C@@H](NC(=O)[C@H](Cc1ccccc1)NC(=O)C[C@H](O)[C@H](CC(C)C)NC(=O)[C@H](C)NC(=O)[C@H](Cc1ccccc1)NC(=O)[C@H](Cc1ccccc1)NC(=O)OC(C)(C)C)C(C)C [2-{2-[2-(4-{2-[2-(2-tert-Butoxycarbonylamino-3-phenyl-propionylamino)-3-phenyl-propionylamino]-propionylamino}-3-hydroxy-6-methyl-heptanoylamino)-3-phenyl-propionylamino]-3-methyl-butyrylamino}-4-methyl-pentanoic acid methyl ester] (Boc-FFA[Sta]FVL-OMe) | 14 nM
COC(=O)[C@H](CC(C)C)NC(=O)[C@@H](NC(=O)[C@H](Cc1ccccc1)NC(=O)C[C@H](O)[C@H](CC(C)C)NC(=O)[C@H](C)NC(=O)[C@H](CC(C)C)NC(=O)[C@H](Cc1ccccc1)NC(=O)OC(C)(C)C)C(C)C [2-{2-[2-(4-{2-[2-(2-tert-Butoxycarbonylamino-3-phenyl-propionylamino)-4-methyl-pentanoylamino]-propionylamino}-3-hydroxy-6-methyl-heptanoylamino)-3-phenyl-propionylamino]-3-methyl-butyrylamino}-4-methyl-pentanoic acid methyl ester] (Boc-FLA[Sta]FVL-OMe) | 9.2 nM
